Test results: patent US20250186396A1, “COMPOSITIONS AND METHODS FOR THE TREATMENT OF GLIOBLASTOMA WITH A DUAL TARGETING ANTI-TUMOR COMPOSITION” (Northwestern University, priority 2023, published 2025)

Legend:
[1] = tested on: U87, PTEN-KO SF763 cells and 005 GSCs; experiment: Proliferation (CFSE) and colony formation assays; assay type: cell-based; settings: BAPN 200 μM or SR9009 5 μM
Procedure: Proliferation (CFSE) assay. Cell proliferation was assessed using the CellTrace carboxy fluorescein succinimidyl ester (CFSE) Cell Proliferation Kit (Invitrogen, #C34554). Briefly, 1×10^6 cells were collected and incubated with CFSE working solution (1:1,000) for 20 minutes at 37° C. The staining was stopped by adding complete cell culture media. After washing, cells were cultured for 3 days with or without the treatment of BAPN (Sigma-Aldrich, #B-A3134, 200 μM), or SR9009 (Cayman, #11929, 5 μM) in the dark and used for flow cytometry analysis. The percentage of CFSE positive peaks over the undivided peak (generation 0) was analyzed using FlowJo v10.8.1.
Colony formation assay. 1×10^3 GBM cells were seeded in each well of 6-well plates with or without the treatment of BAPN (Sigma-Aldrich, #B-A3134, 200 μM), or SR9009 (Cayman, #11929, 5 μM). After 7-10 days, cells were fixed and stained with 0.5% crystal violet in 25% methanol for 1 hour. After three times washing by PBS, the plates were scanned, and the colony number was counted using ImageJ.

OLFML3 = experiment: Immunoblots for OLFML3 in GBM cells and GSCs; assay type: cell-based, human and mouse; settings: immunoblot
Procedure: Cell Culture. The GBM cell lines U87, U251, SF763, LN229, and CT2A, as well as 293T cells were cultured in Dulbecco's Modified Eagle's Medium (DMEM; Gibco, #11995-065). The mouse glioma cell line GL261 cells and SIM-A9 microglia were cultured in Dulbecco's Modified Eagle Medium-Ham's F12 medium (Gibco, #10565-018). HMC3 microglia were cultured in Eagle's Minimum Essential Medium (ATCC, #30-2003). THP-1 macrophages were cultured in RPMI 1640 medium (Gibco, #11875093). All cell lines were cultured in the indicated medium containing 10% fetal bovine serum (FBS; Fisher Scientific, #16140071) and 1:100 antibiotic-antimycotic (Gibco, #15140-122), and were purchased from the American Type Culture Collection (ATCC). Human GSCs (GSC23 and GSC7-10) and mouse GBM tumor-derived 005 GSCs and QPP7 GSCs were cultured in neural stem cell (NSC) proliferation media (Millipore, #SCM005) containing 20 ng/mL epidermal growth factor (EGF; PeproTech, #AF-100-15) and basic fibroblast growth factor (bFGF; PeproTech, #100-18B). Human GSCs were gifted by Dr. Frederick F. Lang from the Brain Tumor Center (The University of Texas MD Anderson Cancer Center). 005 GSCs and QPP7 GSCs were provided by Dr. Samuel D. Rabkin (Massachusetts General Hospital) and Dr. Jian Hu (The University of Texas MD Anderson Cancer Center), respectively. PTEN CRISPR KO in SF763 and LN229 cells were generated. […]

| Compound | GBM cell proliferation [1] | LOX or P65 inhibition-induced OLFML3 upregulation (OLFML3; U87 and PTEN-KO SF763 cells, SR9009 5 μM with BAPN 200 μM or SC75741 5 μM) | expression of OLFML3 (OLFML3; human (U87, PTEN-KO SF763, GSC23, GSC7-10) and mouse (CT2A, 005 GSCs) cells, BAPN at indicated concentrations) |
| --- | --- | --- | --- |
| CCOC(=O)N1CCC(CN(Cc2ccc(Cl)cc2)Cc2ccc([N+](=O)[O-])s2)C1 (stereo not shown) [SR9009] | impaired | rescued |  |
| N#CCCN [BAPN, β-aminopropionitrile] | had no such effect |  | increased |
